Where a SMILES comes first, the peptide text is derived from it. [ ]: non-standard residue; d: D form. The star is where a group is joined. PhAc = O=C(Cc1ccccc1)*
Tests used:
[1] = target: T1, isopenicillin N synthetase (cyclase) (Streptomyces clavuligerus, UniProt P10621); assay: Cyclization of peptide substrates by S. clavuligerus cyclase, penicillin formed measured by bioassay against M. luteus; assay type: biochemical; conditions: for kinetics of cyclization with the cyclase (Fig 1): formation of penicillin G from PCV, synthesis of isopenicillin N from ACV
T1 construct: The broken cell suspension was ultra-centrifuged at 100,000 x g; endogenous in cells; host or cells: Streptomyces clavuligerus ATCC 27064
T1 sequence (P10621 1-329): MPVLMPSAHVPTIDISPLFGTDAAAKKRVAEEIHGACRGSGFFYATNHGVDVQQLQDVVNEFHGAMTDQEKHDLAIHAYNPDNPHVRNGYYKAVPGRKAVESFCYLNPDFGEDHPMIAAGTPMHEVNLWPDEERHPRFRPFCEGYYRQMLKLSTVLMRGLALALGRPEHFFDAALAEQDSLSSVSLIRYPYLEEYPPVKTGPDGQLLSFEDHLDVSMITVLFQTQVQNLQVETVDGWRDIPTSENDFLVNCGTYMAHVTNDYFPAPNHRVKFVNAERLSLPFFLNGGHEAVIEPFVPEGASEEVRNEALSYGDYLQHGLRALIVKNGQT
Protocol: S. clavuligerus ATTC 27064 was maintained and grown as described by O'Sullivan et al. in Biochem. J. 179:47-52, 1979. 250 ml of culture were harvested by centrifugation at 10,000 x g for 5 minutes, washed four times by resuspension in sterile saline solution and centrifuged as before. The precipitated cells, resuspended in 25 ml of […] Tris-HCl buffer pH 7.5 containing 0.1mM DTT (TD buffer), were sonicated as described in J. Antibiot. 35:483-490, 1982, using a Branson Sonifier Cell Disruptor (B-12). The broken cell suspension was ultra-centrifuged at 100,000 x g (Beckman L5-65B) for 90 minutes, treated with 0.2 (w/v) protamine sulphate and the clear extract precipitated with ammonium sulphate (30-80% saturation, for example 50-80% saturation). The resulting precipitate was resuspended in 3 ml of TD buffer and applied to a Sephadex (Trade Mark) G-25, PD-10 column (Pharmacia). Aliquots of 1 ml were collected and assayed for isopenicillin N synthetase (cyclase) activity. Fractions 4 and 5, containing maximal activity, were mixed and employed for the reaction. The cyclase extracts were stored frozen at -20 C. Protein was measured by the method of Lowry et al described in J. Biol. Chem. 193:265-273, 1951.
Cyclization activity of the cyclase on ACV or PCV was assayed by a slightly modified version of the method described by Jensen et al. in J.Antibiot, 35:483-490, 1982 and in Antibiotics and Other Secondary Metabolites pages 141-164, Academic Press. The reaction mixture contained 30mM Tris-HCl buffer pH 7.5; 0.5 mM FeSO₄; 1mM bis-ACV or 3mM bis-PCV; 4mM DTT; 3 mM Na ascorbate and enzyme (10mg of protein) in a final reaction volume of 0.5 ml. The reaction mixture was incubated at 25°C for 90 min and stopped by adding 0.5ml of methanol.
The formation of isopenicillin N and benzylpenicillin was measured by bioassay against M. luteus ATCC 9341 following the hole plate method described in Biochem. J. 103:877-890, 1967. Penicillin N and benzylpenicillin were used as standards. One unit of antibiotic (penicillin N or benzylpenicillin) gave a zone of inhibition equivalent to 1µg or 1.58 µg of penicillin N or benzylpenicillin respectively with M. luteus luteus ATCC 9341 as test organism.

[2] = target: T2, isopenicillin N synthetase (cyclase) (Hapsidospora chrysogena, UniProt P05189); assay: Cyclization of peptide substrates by A. chrysogenum cyclase, penicillin formed measured by bioassay; assay type: biochemical, Acremonium chrysogenum
T2 construct: The mycelium was disrupted by sonification for 2 minutes; endogenous in cells
T2 sequence (P05189 1-338): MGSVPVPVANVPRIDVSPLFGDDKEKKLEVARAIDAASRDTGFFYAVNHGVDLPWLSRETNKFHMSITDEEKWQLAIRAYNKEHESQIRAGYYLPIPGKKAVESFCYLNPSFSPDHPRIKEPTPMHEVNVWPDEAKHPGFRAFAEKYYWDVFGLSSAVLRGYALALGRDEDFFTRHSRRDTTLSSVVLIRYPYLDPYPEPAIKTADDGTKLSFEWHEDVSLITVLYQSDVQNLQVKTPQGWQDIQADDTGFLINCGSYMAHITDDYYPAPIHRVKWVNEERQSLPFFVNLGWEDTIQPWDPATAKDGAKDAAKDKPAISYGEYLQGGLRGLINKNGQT
Protocol: Example 2 was repeated but using isopenicillin N synthetase extracted from a high producing strain of Acremonium chrysogenum (A. chrysogenum C-10 available from A. L. Demain).
Cells containing high isopenicillin N synthetase activity were obtained in a two stage process as described in J. Antibiot. 144:869-876. A. chrysogenum cultures were developed in seed medium for 4 days and these used to innoculate 60ml of chemically defined cephalosporin production medium, (CP medium). Cell free extracts were obtained as described by Ramos et al in Antimicrob. Agents Chemother. 27(3):380-387. Mycelium of A. chrysogenum was collected at 64 hours of cultivation in CP medium and resuspended in 30mM Tris-HCl buffer pH 8.0 containing 0.1mM dithiothreitol (DTT). The mycelium was disrupted by sonification for 2 minutes. The extract was centrifuged at 100,000 x g for 1 hour at 4°C in a Beckman L8-70 ultracentrifuge and the resulting crude extract was stored at -20 C. Isopenicillin N synthetase was purified as previously described in Antimicrob. Agents Chemother. 27(3):380-387.
Bioassay of the isopenicillin N and benzylpenicillin formed by the A. chrysogenum cyclase was performed in a similar way to the method described in Example 3 for assaying the penicillins produced by the cyclase extracted from P. chrysogenum.
Example 4 was repeated but using POCV as substrate in place of PCV. POCV was prepared as described in Example 5. The cyclase was extracted from A. chrysogenum AS-C-80 and incubated in the reaction mixture described in Example 5, with the exception that the pH of the Tris buffer was 7.8.

[3] = target: T3, isopenicillin N synthetase (cyclase) (Penicillium chrysogenum, UniProt P08703); assay: Cyclization of peptide substrates by P. chrysogenum cyclase, penicillin formed measured by bioassay; assay type: biochemical
T3 construct: The mycelium was disrupted by sonification for 5 minutes; endogenous in cells
T3 sequence (P08703 1-331): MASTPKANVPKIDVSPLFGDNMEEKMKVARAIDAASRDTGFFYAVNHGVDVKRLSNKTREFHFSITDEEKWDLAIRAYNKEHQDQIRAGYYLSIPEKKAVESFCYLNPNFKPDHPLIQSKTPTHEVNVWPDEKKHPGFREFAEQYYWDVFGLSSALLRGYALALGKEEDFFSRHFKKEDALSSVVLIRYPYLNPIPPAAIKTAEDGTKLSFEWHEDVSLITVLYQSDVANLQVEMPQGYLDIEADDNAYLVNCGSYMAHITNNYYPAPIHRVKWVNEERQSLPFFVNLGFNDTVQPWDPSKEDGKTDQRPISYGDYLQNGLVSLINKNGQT
Protocol: Example 2 was repeated but using isopenicillin N synthetase extracted from a high producing strain of Penicillium chrysogenum (Penicillium chrysogenum AS-P-78, Luengo et al J. Antibiot. 144:869-876). Cells containing high isopenicillin N synthetase activity were obtained in a two stage process as described in J. Antibiot. 144:869-876. Cell free extracts were obtained as described by Ramos et al in Antimicrob. Agents Chemother. 27(3):380-387. Mycelium of P. chrysogenum was collected at 24 hours of cultivation in cephalosporin production medium (CP medium) and resuspended in 30mM Tris-HCl buffer pH 8.0 containing 0.1mM dithiothreitol (DTT). The mycelium was disrupted by sonification for 5 minutes. The extract was centrifuged at 100,000 x g for 1 hour at 4°C in a Beckman L8-70 ultracentrifuge and the resulting crude extract was stored at -20°C. Isopenicillin N synthetase were purified as previously described in Antimicrob. Agents Chemother. 27(3):380-387. The isopenicillin N and benzylpenicillin formed by cyclization of 0.2mM ACV or 2mM PCV using […] was assayed by the following bioassay. After the reactions were stopped with methanol, triplicate 50 µl samples were applied to wells 7mm in diameter in plates containing 15ml of Tryptic Soy Agar (TSA) medium (Difco) innoculated with Micrococcus luteus (0.5 ml of a culture having an O.D. of 1.0 at 600nm). Control samples of pure isopenicillin N or benzylpenicillin were treated with methanol in a similar way to the reaction samples. The samples in the assay plates were kept at 4°C for 3 hours to allow diffusion and then incubated at 30°C for 12 hours. The cell free extracts of P. chrysogenum AS-P-78 (5-20 mg of protein/ml) were incubated at 25°C for 30 minutes in a reaction mixture containing 30mM Tris-HCl buffer pH 8.1, 0.1mM FeSO₄, 6mM DTT, 3mM Na ascorbate and 3mM POCV. The pH was adjusted to 2.0.

[4] = tested on: isopenicillin N synthetase, also called cyclase; conditions: added to the reaction mixture; cited from earlier work

## CC(C)[C@@H](NC(=O)[C@H](CS)NC(=O)CCC[C@H](N)C(=O)O)C(=O)O [ACV, δ-(L-α-aminoadipyl)-L-cysteinyl-D-valine, reference compound]
[1]
  kinetics of cyclization with the cyclase (Fig 1): much faster
[1]; isopenicillin N obtained from the cyclization of ACV
  sensitivity of the cyclization product to penicillin acylase: not sensitive to penicillin acylase
[1]; substrate ACV (1mM bis-ACV), control reaction mixture, 25°C, 90 min, isopenicillin N measured using penicillin N as standard
  Isopenicillin N¹ or Benzylpenicillin² (U/ml): 40 U/ml
[1]; substrate ACV, + Penicillin acylase (2 I.U, 10 min.), isopenicillin N measured using penicillin N as standard
  Isopenicillin N¹ or Benzylpenicillin² (U/ml): 38 U/ml
[1]; substrate ACV, + β-lactamase, isopenicillin N measured using penicillin N as standard
  Isopenicillin N¹ or Benzylpenicillin² (U/ml): 0 U/ml
[2]
  inactivation of the reaction product by penicillinase: completely inactivated
[3]
  inactivation of the reaction product by penicillin acylase: did not occur
  inactivation of the reaction product by penicillinase: completely inactivated

## CC(C)[C@@H](NC(=O)[C@H](CS)NC(=O)Cc1ccccc1)C(=O)O [PCV, phenylacetyl-L-cysteinyl-D-valine] (PhAc-Cys-[dV]-OH)
[1]
  sensitivity of the cyclization product to β-lactamase I from Bacillus careus: sensitive to β-lactamase I
  kinetics of cyclization with the cyclase (Fig 1): slow time dependent course
[1]; complete reaction mixture with PCV as substrate
  Benzylpenicillin (U/ml): 0.15 U/ml
[1]; hole plate bioassay
  activity of the cyclization product against M. luteus ATTC 9341: active against M. luteus ATTC 9341
[1]; incubated with 2 I.U. of penicillin acylase at 30°C for 10 minutes
  loss of antibacterial activity of the cyclization product: over 90 per cent
[1]; substrate PCV (3mM bis-PCV), control reaction mixture, 25°C, 90 min, benzylpenicillin as standard
  Isopenicillin N¹ or Benzylpenicillin² (U/ml): 0.15 U/ml
[1]; substrate PCV, + Penicillin acylase (2 I.U, 10 min.), benzylpenicillin as standard
  Isopenicillin N¹ or Benzylpenicillin² (U/ml): 0.01 U/ml
[1]; substrate PCV, + β-lactamase, benzylpenicillin as standard
  Isopenicillin N¹ or Benzylpenicillin² (U/ml): 0.00 U/ml
[2]
  inactivation of the reaction product by penicillin acylase: inactivated by penicillin acylase
  inactivation of the reaction product by penicillinase: completely inactivated
[3]
  inactivation of the reaction product by penicillin acylase: inactivated by penicillin acylase
  inactivation of the reaction product by penicillinase: completely inactivated

## CC(C)[C@@H](NC(=O)[C@H](CS)NC(=O)COc1ccccc1)C(=O)O [POCV, phenoxyacetyl-L-cysteinyl-D-valine]
[2]; complete reaction mixture, 3mM POCV, Tris buffer pH 7.8, cyclase from A. chrysogenum AS-C-80
  Penicillin V (U/ml): 0.25 U/ml
[3]; complete reaction mixture, 3mM POCV, Tris-HCl buffer pH 8.1, 25°C, 30 minutes, P. chrysogenum AS-P-78 cell free extract
  Penicillin V (U/ml): 0.18 U/ml

## N[C@@H](CCC(=O)N[C@@H](CS)C(=O)NCC(=O)O)C(=O)O [glutathione, γ-glutamyl-cysteinyl-glycine]
[4]
  effect on ACV cyclization: inhibited

Reference: patent EP0209363B1, “Heteropeptides, intermediates in the biosynthesis of penicillins” (Antibioticos, S.A., priority 1985, dated 1987)
